The source of these data is patent US8329755B2, “Methods for treating retroviral infections” (Roche Palo Alto LLC, priority 2004, dated 2012).

`N#Cc1cc(Oc2c(Br)ccc(CC(=O)Nc3ccc(S(N)(=O)=O)cc3Cl)c2F)cc(C(F)F)c1` [Compound I-165, 2-[4-Bromo-3-(3-cyano-5-difluoromethyl-phenoxy)-2-fluoro-phenyl]-N-(2-chloro-4-sulfamoyl-phenyl)-acetamide] returned a melting point of 205.4 to 207.7 °C.

Compound `CCC(=O)NS(=O)(=O)c1ccc(NC(=O)Cc2ccc(Cl)c(Oc3cc(Cl)cc(C#N)c3)c2F)c(Cl)c1.[Na]` gave a melting point of 155.4 to 157.5 °C. In the case of `N#Cc1cc(Oc2cc(CC(=O)Nc3ccc(S(N)(=O)=O)cc3)ccc2Cl)cc(C(F)(F)F)c1` [Compound I-88, 2-[4-Chloro-3-(3-cyano-5-trifluoromethyl-phenoxy)-phenyl]-N-(4-sulfamoyl-phenyl)-acetamide] it was 219 to 221.4 °C; in that of `Cc1ccc(CC(=O)Nc2ccc(S(C)(=O)=O)cc2Cl)c(F)c1Oc1cc(C#N)cc(C(F)F)c1` [Compound I-112, N-(2-Chloro-4-methanesulfonyl-phenyl)-2-[3-(3-cyano-5-difluoromethyl-phenoxy)-2-fluoro-4-methyl-phenyl]-acetamide], 179.9 to 182 °C; in that of `Cc1ccc(CC(=O)Nc2ccccc2Cl)cc1Oc1cc(C#N)cc(C#N)c1` [Compound I-34, N-(2-Chloro-phenyl)-2-[3-(3,5-dicyano-phenoxy)-4-methyl-phenyl]-acetamide], 175.1 to 177.5 °C. In the case of `CCc1ccc(CC(=O)Nc2ccc(S(N)(=O)=O)cc2C)cc1Oc1cc(Br)cc(F)c1Cl` [Compound I-40, 2-[3-(5-Bromo-2-chloro-3-fluoro-phenoxy)-4-ethyl-phenyl]-N-(2-methyl-4-sulfamoyl-phenyl)-acetamide] it was 207 to 209.9 °C. Regarding `CCc1ccc(CC(=O)Nc2ccccc2Cl)cc1Oc1cc(Br)cc(F)c1Cl` [Compound I-41, 2-[3-(5-Bromo-2-chloro-3-fluoro-phenoxy)-4-ethyl-phenyl]-N-(2-chloro-phenyl)-acetamide], the melting point was 146.6 to 147.2 °C. `Cc1cc(CC(=O)Nc2ccc(S(N)(=O)=O)cc2C)cc(C(=O)c2ccccc2Cl)c1` [Compound I-256, 2-[3-(2-Chloro-benzoyl)-5-methyl-phenyl]-N-(2-methyl-4-sulfamoyl-phenyl)-acetamide] returned a melting point of 207.7 to 209.3 °C. With `CC(=O)Nc1cc(C)c(NC(=O)Cc2ccc(C)c(Oc3cc(Cl)cc(C#N)c3)c2)cn1` [Compound I-228, N-(6-Acetylamino-4-methyl-pyridin-3-yl)-2-[3-(3-chloro-5-cyano-phenoxy)-4-methyl-phenyl]-acetamide] the figure was 222.5 to 224 °C; with `Cc1cc(S(N)(=O)=O)ccc1NC(=O)Cc1ccc(Cl)c(C(=O)c2cc(Cl)ccc2Cl)c1` [Compound I-249, 2-[4-Chloro-3-(2,5-dichloro-benzoyl)-phenyl]-N-(2-methyl-4-sulfamoyl-phenyl)-acetamide], 214.9 to 218.8 °C. With `COc1ccc(CC(=O)Nc2ccc(S(N)(=O)=O)cc2Cl)cc1Oc1cc(C#N)cc(C(F)F)c1` [Compound I-94, N-(2-Chloro-4-sulfamoyl-phenyl)-2-[3-(3-cyano-5-difluoromethyl-phenoxy)-4-methoxy-phenyl]-acetamide] the figure was 185 to 187.9 °C; with `Cc1ccc(C#N)cc1C(=O)c1cc(CC(=O)Nc2ccc(S(N)(=O)=O)cc2)ccc1C` [Compound I-266, 2-[3-(5-Cyano-2-methyl-benzoyl)-4-methyl-phenyl]-N-(4-sulfamoyl-phenyl)-acetamide], 229.6 to 231.1 °C; with `Cc1cc(CC(=O)Nc2ccc(S(N)(=O)=O)cc2)cc(Oc2cc(Cl)cc(C#N)c2)c1` [Compound I-141, 2-[3-(3-Chloro-5-cyano-phenoxy)-5-methyl-phenyl]-N-(4-sulfamoyl-phenyl)-acetamide], 183.9 to 185.2 °C. With `CC(F)(F)c1cc(C#N)cc(Oc2c(Cl)ccc(CC(=O)Nc3ccc(S(N)(=O)=O)cc3)c2F)c1` [Compound I-95, 2-{4-Chloro-3-[3-cyano-5-(1,1-difluoro-ethyl)-phenoxy]-2-fluoro-phenyl}-N-(4-sulfamoyl-phenyl)-acetamide], the melting point lay within 207 to 209.8 °C. With `Cc1ccc(CC(=O)Nc2ccc(S(N)(=O)=O)cc2)cc1Oc1cc(Cl)ccc1Br` [Compound I-30, 2-[3-(2-Bromo-5-chloro-phenoxy)-4-methyl-phenyl]-N-(4-sulfamoyl-phenyl)-acetamide] the figure was 236.9 to 239.3 °C. With `CCc1ccc(CC(=O)Nc2ccc(S(N)(=O)=O)cc2)cc1Oc1c(Cl)cccc1Cl` [Compound I-20, 2-[3-(2,6-Dichloro-phenoxy)-4-ethyl-phenyl]-N-(4-sulfamoyl-phenyl)-acetamide] the figure was 222.5 to 225 °C; with `N#Cc1cccc(Oc2cc(CC(=O)Nc3ccc(S(N)(=O)=O)cc3)cc3ccoc23)c1` [Compound I-144, 2-[7-(3-Cyano-phenoxy)-benzofuran-5-yl]-N-(4-sulfamoyl-phenyl)-acetamide], 196.4 to 198.7 °C; with `Cc1ccc(CC(=O)Nc2ccc(S(N)(=O)=O)cc2Cl)c(F)c1Oc1cc(C#N)cc(C(F)F)c1` [Compound I-84, N-(2-Chloro-4-sulfamoyl-phenyl)-2-[3-(3-cyano-5-difluoromethyl-phenoxy)-2-fluoro-4-methyl-phenyl]-acetamide], 218 to 218.7 °C.

`Cc1cc(S(N)(=O)=O)ccc1NC(=O)Cc1ccc(Cl)c(C(=O)c2cc(Cl)cc(Cl)c2)c1` [Compound I-252, 2-[4-Chloro-3-(3,5-dichloro-benzoyl)-phenyl]-N-(2-methyl-4-sulfamoyl-phenyl)-acetamide] yielded a melting point of 263 to 264.4 °C. In the case of `O=C(Cc1ccc(Cl)c(Oc2cccc(Cl)c2)c1)Nc1ccccc1` [Compound I-192, 2-[4-Chloro-3-(3-chloro-phenoxy)-phenyl]-N-phenyl-acetamide] it was 126.8 to 127.7 °C. With `CSCCNS(=O)(=O)c1ccc(NC(=O)Cc2ccc(C)c(Oc3cc(Cl)cc(C#N)c3)c2)c(C)c1` [Compound I-130, 2-[3-(3-Chloro-5-cyano-phenoxy)-4-methyl-phenyl]-N-[2-methyl-4-(2-methylsulfanyl-ethylsulfamoyl)-phenyl]-acetamide] the figure was 155.6 to 156.6 °C; with `Cc1ccc(CC(=O)Nc2ccc(S(N)(=O)=O)cc2Cl)cc1Oc1cc(C#N)cc(C#N)c1` [Compound I-44, N-(2-Chloro-4-sulfamoyl-phenyl)-2-[3-(3,5-dicyano-phenoxy)-4-methyl-phenyl]-acetamide], 209.9 to 211.5 °C. In the case of `CCc1ccc(CC(=O)Nc2ccc(S(N)(=O)=O)cc2C)cc1Oc1cc(Cl)cc(C#N)c1` [Compound I-46, 2-[3-(3-Chloro-5-cyano-phenoxy)-4-ethyl-phenyl]-N-(2-methyl-4-sulfamoyl-phenyl)-acetamide] it was 189.1 to 189.4 °C; in that of `COc1ccc(CC(=O)Nc2ccccc2)cc1Oc1cc(Cl)cc(C#N)c1` [Compound I-210, 2-[3-(3-Chloro-5-cyano-phenoxy)-4-methoxy-phenyl]-N-phenyl-acetamide], 171.3 to 171.6 °C; in that of `COCCC(=O)NS(=O)(=O)c1ccc(NC(=O)Cc2ccc(Cl)c(Oc3cc(Cl)cc(C#N)c3)c2F)c(Cl)c1.[Na]`, 133.1 to 140.7 °C.

`CCc1ccc(CC(=O)Nc2ccccc2Cl)cc1Oc1c(Cl)cccc1Cl` [Compound I-23, N-(2-Chloro-phenyl)-2-[3-(2,6-dichloro-phenoxy)-4-ethyl-phenyl]-acetamide] returned a melting point of 107 to 110.5 °C. Compound `N#Cc1cc(C#N)cc(Oc2cc(CC(=O)Nc3ccccc3)ccc2Cl)c1` [Compound I-211, 2-[4-Chloro-3-(3,5-dicyano-phenoxy)-phenyl]-N-phenyl-acetamide] had a melting point of 199 to 201.9 °C. With `NS(=O)(=O)c1ccc(NC(=O)Cc2ccc(Cl)c(Oc3cc(Cl)cc(Cl)c3Cl)c2F)cc1` [Compound I-10, 2-[4-Chloro-2-fluoro-3-(2,3,5-trichloro-phenoxy)-phenyl]-N-(4-sulfamoyl-phenyl)-acetamide] the figure was 247 to 249.9 °C; with `Cc1cc(CC(=O)Nc2ccccc2Cl)cc(C(=O)c2ccccc2Cl)c1` [Compound I-259, 2-[3-(2-Chloro-benzoyl)-5-methyl-phenyl]-N-(2-chloro-phenyl)-acetamide], 125.1 to 127 °C. In the case of `CCc1ccc(CC(=O)Nc2ccc(S(N)(=O)=O)cc2)cc1Oc1cc(Cl)ccc1Cl` [Compound I-19, 2-[3-(2,5-Dichloro-phenoxy)-4-ethyl-phenyl]-N-(4-sulfamoyl-phenyl)-acetamide] it was 190 to 193.4 °C. With `CC(C)[C@H](N)C(=O)NS(=O)(=O)c1ccc(NC(=O)Cc2ccc(Cl)c(Oc3cc(Cl)cc(C#N)c3)c2F)c(Cl)c1.[Na]` [Compound I-127, N-[4-((S)-2-Amino-3-methyl-butyrylsulfamoyl)-2-chloro-phenyl]-2-[4-chloro-3-(3-chloro-5-cyano-phenoxy)-2-fluoro-phenyl]-acetamide; sodium salt] the figure was 219.4 to 220.2 °C; with `CCc1ccc(CC(=O)Nc2ccccc2Cl)cc1Oc1cc(Cl)ccc1Br` [Compound I-16, 2-[3-(2-Bromo-5-chloro-phenoxy)-4-ethyl-phenyl]-N-(2-chloro-phenyl)-acetamide], 154 to 155.5 °C; with `CCc1ccc(CC(=O)Nc2ccc(S(N)(=O)=O)cc2)cc1Oc1cc(C#N)cc(C(F)F)c1` [Compound I-91, 2-[3-(3-Cyano-5-difluoromethyl-phenoxy)-4-ethyl-phenyl]-N-(4-sulfamoyl-phenyl)-acetamide], 188 to 198 °C. As to `Cc1cc(C#N)cc(Oc2c(Cl)ccc(CC(=O)Nc3ccc(S(N)(=O)=O)cc3C)c2F)n1` [Compound I-124, 2-[4-Chloro-3-(4-cyano-6-methyl-pyridin-2-yloxy)-2-fluoro-phenyl]-N-(2-methyl-4-sulfamoyl-phenyl)-acetamide], the melting point was 230.1 to 230.7 °C.

`COC(=O)Cc1ccc(NC(=O)Cc2ccc(C)c(Oc3cc(Cl)cc(C#N)c3)c2)c(Cl)c1` [Compound I-235, (3-Chloro-4-{2-[3-(3-chloro-5-cyano-phenoxy)-4-methyl-phenyl]-acetylamino}-phenyl)-acetic acid methyl ester] came in with a melting point of 116.9 to 118 °C.
